Experimental data reported in ChEMBL document CHEMBL5584231, “Rational design of a new short anticancer peptide with good potential for cancer treatment” (Eur J Med Chem, 2024).
Residues, ends and D or L forms follow the SMILES beside them.

Columns and labels:
A549 = experiment: Cytotoxicity against human A549 cells assessed as inhibition of cell growth incubated for 1 hr by MTT assay; assay type: functional, cell-based; conditions: A549, 1 h
HeLa = experiment: Cytotoxicity against human HeLa cells assessed as inhibition of cell growth incubated for 1 hr by MTT assay; assay type: functional, cell-based
[1] = Therapeutic index, ratio of HC10 for mouse RBC to IC50 for cytotoxicity against human A549 cells; assay type: toxicity, cell-based; conditions: mouse RBC and A549 cells, read-out: TI
[2] = Cytotoxicity against HK-2 cells assessed as inhibition of cell growth incubated for 1 hr by MTT assay; assay type: toxicity, cell-based; conditions: human
[3] = Therapeutic index, ratio of HC10 for mouse RBC to IC50 for cytotoxicity against RG cells (unknown origin); assay type: toxicity, cell-based; conditions: mouse RBC and RG cells, read-out: TI
[4] = Cytotoxicity against RG cells (unknown origin) assessed as inhibition of cell growth incubated for 1 hr by MTT assay; assay type: functional, cell-based
[5] = Therapeutic index, ratio of HC10 for mouse RBC to IC50 for cytotoxicity against human MCF7 cells; assay type: toxicity, cell-based; conditions: mouse RBC and MCF7 cells, read-out: TI
[6] = Therapeutic index, ratio of HC10 for mouse RBC to IC50 for cytotoxicity against human HeLa cells; assay type: toxicity, cell-based; conditions: mouse RBC and HeLa cells, read-out: TI
MCF7 = experiment: Cytotoxicity against human MCF7 cells assessed as inhibition of cell growth incubated for 1 hr by MTT assay; assay type: functional, cell-based; conditions: MCF7, 1 h

SMILES | IC50 (A549) | IC50 (HeLa) | selectivity ratio [1] | IC50 at 1 h [2] | selectivity ratio [3] | IC50 [4] | selectivity ratio [5] | selectivity ratio [6] | IC50 (MCF7)
CC(C)C[C@H](NC(=O)[C@H](CC(C)C)NC(=O)[C@H](CCCCN)NC(=O)[C@H](CCCCN)NC(=O)[C@H](CC(C)C)NC(=O)[C@H](CC(C)C)NC(=O)[C@H](CCCCN)NC(=O)[C@H](CCCCN)NC(=O)[C@H](CC(C)C)NC(=O)[C@H](CC(C)C)NC(=O)[C@H](CCCCN)NC(=O)[C@H](CCCCN)NC(=O)[C@H](CC(C)C)NC(=O)[C@@H](N)CCC(=O)O)C(N)=O (H-ELKKLLKKLLKKLL-NH2) | 14.7 µM | 16.3 µM | 1.75 | 50.8 µM | 1.15 | 22.5 µM | 0.647 | 1.58 | 39.9 µM
CC(C)C[C@H](NC(=O)[C@H](CC(C)C)NC(=O)[C@H](CCCCN)NC(=O)[C@H](CCCCN)NC(=O)[C@H](CC(C)C)NC(=O)[C@H](CC(C)C)NC(=O)[C@H](CCCCN)NC(=O)[C@H](CCCCN)NC(=O)[C@H](CC(C)C)NC(=O)[C@H](CC(C)C)NC(=O)[C@H](CCCCN)NC(=O)[C@@H](N)CCCCN)C(=O)N[C@@H](CCCCN)C(N)=O (H-KKLLKKLLKKLLK-NH2) | 55.4 µM | 20.8 µM | 9.03 | 63.9 µM | 5.36 | 93.3 µM | 4.61 | 24.1 | 108 µM
CC(C)C[C@H](NC(=O)[C@H](CC(C)C)NC(=O)[C@H](CCCCN)NC(=O)[C@H](CCCCN)NC(=O)[C@H](CC(C)C)NC(=O)[C@H](CC(C)C)NC(=O)[C@H](CCCCN)NC(=O)[C@H](CCCCN)NC(=O)[C@H](CC(C)C)NC(=O)[C@H](CC(C)C)NC(=O)[C@H](CCCCN)NC(=O)[C@H](CCCCN)NC(=O)[C@H](CC(C)C)NC(=O)[C@H](CC(C)C)NC(=O)[C@H](CCCCN)NC(=O)[C@@H](N)CCCCN)C(=O)N[C@@H](CCCCN)C(N)=O (H-KKLLKKLLKKLLKKLLK-NH2) | 7.23 µM | 4.63 µM | 1.67 | 8.47 µM | 1.11 | 10.9 µM | 1.34 | 2.62 | 9.06 µM
CC(C)C[C@H](NC(=O)[C@H](CCCCN)NC(=O)[C@H](CC(C)C)NC(=O)[C@H](CC(C)C)NC(=O)[C@H](CCCCN)NC(=O)[C@H](CCCCN)NC(=O)[C@H](CC(C)C)NC(=O)[C@H](CC(C)C)NC(=O)[C@H](CCCCN)NC(=O)[C@H](CCCCN)NC(=O)[C@H](CC(C)C)NC(=O)[C@H](CC(C)C)NC(=O)[C@H](CCCCN)NC(=O)[C@H](CCCCN)NC(=O)[C@H](CC(C)C)NC(=O)[C@H](CC(C)C)NC(=O)[C@H](CCCCN)NC(=O)[C@@H](N)CCCCN)C(N)=O (H-KKLLKKLLKKLLKKLLKL-NH2) | 5.61 µM | 3.45 µM | 1.11 | 15.1 µM | 0.686 | 9.04 µM | 1.05 | 1.8 | 5.88 µM
CC(C)C[C@H](NC(=O)[C@H](CCCCN)NC(=O)[C@H](CC(C)C)NC(=O)[C@H](CC(C)C)NC(=O)[C@H](CCCCN)NC(=O)[C@H](CCCCN)NC(=O)[C@H](CC(C)C)NC(=O)[C@H](CC(C)C)NC(=O)[C@H](CCCCN)NC(=O)[C@H](CCCCN)NC(=O)[C@H](CC(C)C)NC(=O)[C@H](CC(C)C)NC(=O)[C@H](CCCCN)NC(=O)[C@@H](N)CCCCN)C(N)=O (H-KKLLKKLLKKLLKL-NH2) | 8.71 µM | 7.85 µM | 9.31 | 8.91 µM | 6.72 | 12.1 µM | 6.5 | 10.3 | 12.5 µM
CC(C)C[C@H](NC(=O)[C@H](CC(C)C)NC(=O)[C@H](CCCCN)NC(=O)[C@H](CCCCN)NC(=O)[C@H](CC(C)C)NC(=O)[C@H](CC(C)C)NC(=O)[C@H](CCCCN)NC(=O)[C@H](CCCCN)NC(=O)[C@H](CC(C)C)NC(=O)[C@H](CC(C)C)NC(=O)[C@@H](N)CCCCN)C(=O)N[C@@H](CCCCN)C(N)=O (H-KLLKKLLKKLLK-NH2) | 131 µM | 22.2 µM | 3.19 | 82.6 µM | 8.86 | 47.2 µM | 4.66 | 18.9 | 89.7 µM
CC(C)C[C@H](NC(=O)[C@H](CC(C)C)NC(=O)[C@H](CCCCN)NC(=O)[C@H](CCCCN)NC(=O)[C@H](CC(C)C)NC(=O)[C@H](CC(C)C)NC(=O)[C@H](CCCCN)NC(=O)[C@H](CCCCN)NC(=O)[C@H](CC(C)C)NC(=O)[C@H](CC(C)C)NC(=O)[C@H](CCCCN)NC(=O)[C@H](CCCCN)NC(=O)[C@H](CC(C)C)NC(=O)[C@H](CC(C)C)NC(=O)[C@@H](N)CCCCN)C(=O)N[C@@H](CCCCN)C(N)=O (H-KLLKKLLKKLLKKLLK-NH2) | 3.93 µM | 3.94 µM | 2.31 | 7.36 µM | 1.34 | 6.79 µM | 1.22 | 2.31 | 7.46 µM
CC(C)C[C@H](NC(=O)[C@H](CCCCN)NC(=O)[C@H](CC(C)C)NC(=O)[C@H](CC(C)C)NC(=O)[C@H](CCCCN)NC(=O)[C@H](CCCCN)NC(=O)[C@H](CC(C)C)NC(=O)[C@H](CC(C)C)NC(=O)[C@H](CCCCN)NC(=O)[C@H](CCCCN)NC(=O)[C@H](CC(C)C)NC(=O)[C@H](CC(C)C)NC(=O)[C@H](CCCCN)NC(=O)[C@H](CCCCN)NC(=O)[C@H](CC(C)C)NC(=O)[C@H](CC(C)C)NC(=O)[C@@H](N)CCCCN)C(N)=O (H-KLLKKLLKKLLKKLLKL-NH2) | 4.06 µM | 2.68 µM | 0.787 | 5.35 µM | 0.406 | 7.88 µM | 0.517 | 1.2 | 6.19 µM
CC(C)C[C@H](NC(=O)[C@H](CCCCN)NC(=O)[C@H](CC(C)C)NC(=O)[C@H](CC(C)C)NC(=O)[C@H](CCCCN)NC(=O)[C@H](CCCCN)NC(=O)[C@H](CC(C)C)NC(=O)[C@H](CC(C)C)NC(=O)[C@H](CCCCN)NC(=O)[C@H](CCCCN)NC(=O)[C@H](CC(C)C)NC(=O)[C@H](CC(C)C)NC(=O)[C@@H](N)CCCCN)C(N)=O (H-KLLKKLLKKLLKL-NH2) | 9.08 µM | 8.14 µM | 6.09 | 9.65 µM | 4.98 | 11.1 µM | 5.27 | 6.79 | 10.5 µM
CC(C)C[C@H](NC(=O)[C@H](CC(C)C)NC(=O)[C@H](CCCCN)NC(=O)[C@H](CCCCN)NC(=O)[C@H](CC(C)C)NC(=O)[C@H](CC(C)C)NC(=O)[C@H](CCCCN)NC(=O)[C@H](CCCCN)NC(=O)[C@H](CC(C)C)NC(=O)[C@H](CC(C)C)NC(=O)[C@H](CCCCN)NC(=O)[C@H](CC(C)C)NC(=O)[C@H](CC(C)C)NC(=O)[C@@H](N)CCCCN)C(N)=O (H-KLLKLLKKLLKKLL-NH2) | 15.4 µM | 11.9 µM | 0.486 | 28.1 µM | 0.219 | 34.3 µM | 0.129 | 0.629 | 58.4 µM
